Laboratory results published in patent US6410041B1, “Culturing cells in presence of amphipathic weak bases and/or cations and multiple drug resistance inhibitor containing reserpine” (priority 1998, dated 2002).
Converted amounts (≈) assume the structure as drawn. Like-named read-outs stand apart in the source and are kept apart here.

Key:
[1] = test system: Staphylococcus aureus RN 4222 (WT); experiment: MIC determination in wild type S. aureus; assay type: cell-based
Procedure: (§1) Determination of minimal inhibitory concentrations (MICs). MICs were determined by serial two-fold dilution of antimicrobials in Mueller-Hinton broth containing chloramphenicol ([…]). […] Around 10^5 cells were inoculated in 1 ml of medium for the test. MICs were read after 18 hours of incubation at 37 C. with aeration. The 50% inhibitory concentration (IC50) was determined by growing cells in microtiter plate wells and reading the optical density after overnight growth at 650 nm.

[2] = test system: Staphylococcus aureus KLE 820 (norA−); experiment: microbe, parasite or virus in culture; assay type: cell-based; settings: for Sensitivity of norA- as compared to the wild type: in the absence of reserpine
Text: Disruption of the norA gene. Chloramphenicol acetyltransferase (CAT) gene was isolated by digesting plasmid pLI50 (10) with Sau3A (New England Biolabs). The CAT gene was cloned into the BamHI site of plasmid pSP72 (Promega) to yield plasmid PCH22. Chromosomal DNA from S. aureus RN4220 was isolated according to the protocol of Qiagen, Inc. Part of the 1050 bp norA gene lacking a 80 bp N-terminus and a 20 bp C-terminus was PCR-amplified from chromosomal DNA using primer A:5′-[…]-[…] and primer B:5′-[…]. This fragment was cloned into the EcoRI/EcoRV site of PCH22 to yield plasmid PCH23. S. aureus were transformed by PCH23 using electroporation (11). Cells were plated on trypticase soy agar (TSA) with chloramphenicol. A transformant colony was picked after 24 hours of incubation at 37 C., regrown, plated on CAM medium and a large colony was picked for further work.
as §1

S. aureus = experiment: MICs of antimicrobials with small molecule MDR inhibitor (I) and high pH; assay type: cell-based, Staphylococcus aureus; settings: for Potentiation factor (pH 7/(pH 9 + I)): pH 7 vs pH 9 + I
Procedure: as §1

[3] = RN 4222 (WT), +R (20 μg/mL reserpine)
[4] = KLE 820 (norA−), +R (20 μg/mL reserpine)
[5] = Staphylococcus aureus, KLE 820 (norA−), −R (no reserpine)
[6] = Staphylococcus aureus, pH 7.2, KLE 820 (norA−), pH 7.2
[7] = Staphylococcus aureus, pH 9, KLE 820 (norA−), pH 9
[8] = Staphylococcus aureus, RN 4222 (WT), pH 7.2, read-out: MIC
[9] = Staphylococcus aureus, RN 4222 (WT), pH 9, read-out: MIC
[10] = Staphylococcus aureus, RN 4222 (WT), −R (no reserpine), read-out: MIC

With `CC[n+]1c(-c2ccccc2)c2cc(N)ccc2c2ccc(N)cc21` [EtBr, ethidium bromide] the MIC [1, 3] was 1.25 µg/mL, the MIC ([1]; Staphylococcus aureus) was 5 µg/mL and the MIC ([1]; Staphylococcus aureus, pH 7.2) was 5 µg/mL. For the same compound, the MIC ([1]; Staphylococcus aureus, pH 9) was 0.078 µg/mL, the MIC [2, 4] was 0.33 µg/mL and the MIC [2, 5] was 0.33 µg/mL. For the same compound, the MIC [2, 6] was 0.312 µg/mL, the MIC [2, 7] was 0.01 µg/mL and the “Sensitivity of norA- as compared to the wild type” value [2] was 16. For the same compound, the “Sensitivity norA− at pH 9 vs. WT at pH 7.2” value [2] was 500.

`COc1ccc2cc3[n+](cc2c1OC)CCc1cc2c(cc1-3)OCO2` [Berberine] showed an MIC [1, 8] of 60 µg/mL, an MIC [1, 9] of 3.75 µg/mL and an MIC [2, 6] of 7.5 µg/mL. For the same compound, the MIC [2, 7] was 0.23 µg/mL, the “substrate of NorA” value ([2]; based on comparison of MIC from wild type and norA−) was “substrates of NorA” and the “increase in sensitivity, pH 9 combined with norA mutation” value ([2]; norA− at pH 9 vs wild type at neutral pH) was 260 fold. The “Sensitivity norA− at pH 9 vs. WT at pH 7.2” value [2] was 260, the “increase in sensitivity by norA mutation” value ([2]; norA− vs wild type) was 32 fold and the MIC (S. aureus; Staphylococcus aureus, pH 7, read-out: MIC) was 60 µg/mL. The MIC (S. aureus; Staphylococcus aureus, pH 9, read-out: MIC) was 7.5 µg/mL, the MIC (S. aureus; Staphylococcus aureus, MDR inhibitor and high pH, read-out: MIC) was 0.012 µg/mL and the “substrate of MDR pumps” value (S. aureus; cationic plant antimicrobial alkaloids) was “good substrates of MDR pumps”. For the same compound, the MIC (S. aureus; pH 7 + I (10 μg/mL)) was 0.4 µg/mL, the Ratio (S. aureus; pH 7 vs pH 7 + I) was 150 and the “Potentiation factor (pH 7/(pH 9 + I))” value (S. aureus) was 4,800. For the same compound, the MIC (S. aureus; pH 9 + I) was 0.0125 µg/mL, the Ratio (S. aureus; pH 9 vs pH 9 + I) was 600 and the “increase in potency by MDR inhibitor” value (S. aureus; proprietary MDR inhibitor (I), Table 3, pH 7) was 150 fold.

For `CCC[C@@H]1C[C@@H](C(=O)N[C@@H]([C@H]2O[C@H](SC)[C@H](O)[C@@H](O)[C@H]2O)[C@@H](C)O)N(C)C1` [Lincomycin], the MIC [1, 10] was 0.6 µg/mL (≈ 1.48 µM) and the “Sensitivity of norA- as compared to the wild type” value [2] was 1.

Compound `O=C(O)c1cn(C2CC2)c2cc(N3CCNCC3)c(F)cc2c1=O` [Ciprofloxacin] has an MIC [1, 3] of 0.33 µg/mL (≈ 0.996 µM) and an MIC [1, 10] of 0.67 µg/mL (≈ 2.02 µM).

`NC[C@H]1O[C@H](O[C@H]2[C@H](O)[C@@H](O[C@H]3O[C@H](CO)[C@@H](O)[C@H](N)[C@H]3O)[C@H](N)C[C@@H]2N)[C@H](O)[C@@H](O)[C@@H]1O` [Kanamycin] was tested, and the MIC [1, 10] was 0.33 µg/mL (≈ 0.681 µM) and the “Sensitivity of norA- as compared to the wild type” value [2] was 1.

For Benzalkonium Chloride, the MIC ([1]; RN 4222 (WT), pH 7.2) was 0.67 µg/mL, the MIC ([1]; RN 4222 (WT), pH 9) was 0.08 µg/mL and the “effect of pH 9 on sensitivity / effectiveness” value ([1]; change of pH from 7 to 9) was “significantly increased the effectiveness”. For the same compound, the MIC ([2]; KLE 820 (norA−), pH 7.2) was 0.16 µg/mL, the MIC ([2]; KLE 820 (norA−), pH 9) was 0.0104 µg/mL and the “Sensitivity norA− at pH 9 vs. WT at pH 7.2” value [2] was 64. The MIC (S. aureus; pH 7) was 0.67 µg/mL, the MIC (S. aureus; pH 7 + I (10 μg/mL)) was 0.08 µg/mL and the Ratio (S. aureus; pH 7 vs pH 7 + I) was 8.3. The “Potentiation factor (pH 7/(pH 9 + I))” value (S. aureus) was 134, the MIC (S. aureus; pH 9) was 0.16 µg/mL and the MIC (S. aureus; pH 9 + I) was less than 0.005 µg/mL. The Ratio (S. aureus; pH 9 vs pH 9 + I) was 32.

For Gentamycin, the MIC ([1]; RN 4222 (WT), −R (no reserpine)) was 0.62 µg/mL, the MIC ([2]; KLE 820 (norA−), −R (no reserpine)) was 0.62 µg/mL and the “Sensitivity of norA- as compared to the wild type” value [2] was 1.

In the case of `CCn1cc(C(=O)O)c(=O)c2cc(F)c(N3CCNCC3)cc21` [Norfloxacin], the MIC [1, 3] is reported as 0.67 µg/mL (≈ 2.1 µM), the MIC [1, 8] is reported as 1.25 µg/mL (≈ 3.91 µM) and the MIC [1, 9] is reported as 1.25 µg/mL (≈ 3.91 µM). For the same compound, the MIC [1, 10] was 1.25 µg/mL (≈ 3.91 µM), the MIC [2, 4] was 0.33 µg/mL (≈ 1.03 µM) and the MIC [2, 5] was 0.33 µg/mL (≈ 1.03 µM). For the same compound, the MIC [2, 6] was 0.33 µg/mL (≈ 1.03 µM), the MIC [2, 7] was 0.33 µg/mL (≈ 1.03 µM) and the “Sensitivity of norA- as compared to the wild type” value [2] was 4. The “Sensitivity norA− at pH 9 vs. WT at pH 7.2” value [2] was 4.

For `CC[C@H]1OC(=O)[C@H](C)[C@@H](O[C@H]2C[C@@](C)(OC)[C@@H](O)[C@H](C)O2)[C@H](C)[C@@H](O[C@@H]2O[C@H](C)C[C@H](N(C)C)[C@H]2O)[C@](C)(O)C[C@@H](C)C(=O)[C@H](C)[C@@H](O)[C@]1(C)O` [Erythromycin], the MIC ([1]; Staphylococcus aureus) was 0.195 µg/mL (≈ 0.266 µM), the MIC [2, 5] was 0.195 µg/mL (≈ 0.266 µM) and the “Sensitivity of norA- as compared to the wild type” value [2] was 1.

`CN(C)[C@@H]1C(O)=C(C(N)=O)C(=O)[C@@]2(O)C(O)=C3C(=O)c4c(O)cccc4[C@@](C)(O)[C@H]3C[C@@H]12` [Tetracycline] was tested, and the MIC [1, 10] was 0.097 µg/mL (≈ 0.218 µM) and the “Sensitivity of norA- as compared to the wild type” value [2] was 1.
